{"source": "patent US20080020077A1", "about": "“Association Of Vegetal Extracts Based On Gooseberries, Black Orchids And Black Tulips And Topical Composition Comprising The Association Of Said Vegetal Extracts” (priority 2004, published 2008)", "system": "collagen", "assay": "Collagen content of human fibroblasts (hydroxyproline by reverse-phase HPLC)", "type": "cell-based", "conditions": "positive reference, versus control", "experimental": "For this study, the fibroblasts were cultured in the same way as in paragraph 1.4.1. After the incubation period, the fibroblasts were recovered by centrifugation. The pellets were digested with […] (1 mg/cell pellet) in […] acetic acid for 24 hours at 4° C. After centrifugation at 10 000 g, the collagens were precipitated with 1 M sodium chloride (NaCl), and the precipitate was resuspended and then dialyzed. The primary amino acids were derivatized with o-phthaldehyde (OPA) acid, thus eliminating their interference. Hydroxyproline and proline were then derivatized with NBD-Cl by coupling the amino groups to NBD-CL. The NBD-Hyp was separated and identified by reverse-phase HPLC. […] The mobile phase is pre-filtered and then degassed before use. • The solutions are prepared in the following way: […] The standard curve is prepared from a solution of hydroxyproline at 50 mg/l. Successive dilutions make it possible to obtain solutions ranging from 0.5 to 40 mg/l. The derivatization and the establishment of the standard curve are carried out using 10 μl of a standard solution at various concentrations, mixed with 10 μl of the buffer. After the addition of 5 μl of OPA and agitation, the tubes are kept at ambient temperature for 5 min and then 10 μl of the NBD-Cl solution are added. […] The tubes are then removed and the orange coloration makes it possible to verify the derivatization. […]", "data": [{"smiles": "O=C1O[C@H]([C@@H](O)CO)C(O)=C1O", "note": "[Vit C, vitamin C]", "values": [{"measurement": "% incorporation", "result": "+61%"}]}]}
